Patent US7250157B2, “Dermatological compositions and methods” (Applied Genetics Incorporated Dermatics, priority 1996, dated 2007)
“And” between values parts separate entries of the source, which are not always exact repeats. Identical values can stand only once.

Experiments:
[1] = test system: Cloudman S91 mouse melanoma cell line; assay: Melanin content of S91 cells after treatment with test compound; type: cell-based
Summary of the method: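 Mouse S91 melanoma cells seeded at 10^5 cells/35 mm dish in 10% calf serum and cultured with test compound 6 days at 37 °C, 5% CO2. Differentiation scored microscopically, trypsin detachment time recorded, cells counted; melanin measured by absorbance at 475 nm and expressed as pg melanin/cell.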

[2] = test system: Tyrosinase in normal human epidermal melanocytes (NHEM); assay: Tyrosinase in NHEM (in situ, cellular, extracellular particulate, media); type: cell-based
Procedure: Tyrosinase was measured in normal human epidermal melanocytes (NHEM) using procedures identical to those described for S91 cells (Example 6), […], 1600×g, or 17,300×g for analysis of tyrosinase activity in the extracellular exported melanosomal particulate fraction, and in the resultant supernatant media fraction. In some cases (Table 11), tyrosinase was also measured by an in situ assay wherein radiolabelled tyrosine was added directly to freshly replaced media of NHEM for a period of 24 hrs following a 5 day treatment period (Abdel-Malek, et al., 1992, J. Cell. Physiol. 150:416-425). […] Both 5 mM 5-NBene-2,2-DM and 25 mM 3,3-M-1,2-BD induced more tyrosinase in each of these assays and fractions than did 1,2-PG. IBMX (3-isobutyl-1-methyl-xanthine) provided as a positive control, induced as much tyrosinase as 5 mM 5-NBene-2,2-DM in the in situ assay, but less in cellular, extracellular particulate and media fractions (Table 11).

[3] = test system: tyrosinase activity in S91 mouse melanoma cells; assay: Induction of tyrosinase activity in S91 cells; conditions: 300 mM PG-1,2; 25 mM 3,3-M-1,2-BD; 50 mM 1,2-cs-CPD; 5 mM 5-NBene-2,2-DM; 0.5 mM 2,3-Pyd; 0.1 mM IBMX; mean ±SE
[4] = test system: Cloudman S91 mouse melanoma cell line; assay: Cell count (proliferation, toxicity) of treated S91 cells; type: cell-based; conditions: concentrations that induce much higher levels of tyrosinase
Procedure: The Cloudman S91 mouse melanoma cell line was obtained from American Type Culture Collection (ATCC). Cells were cultured in Dulbecco's Modified Eagles Medium (DMEM) containing 10% calf serum, 2 mM L-glutamine, 10 U Penicillin/ml and 10 ug Streptomycin/ml according to a previously published protocol (Eller, et al., Proc. Natl. Acad. Sci. 93:1087-92. 1996). For testing propylene glycol and analogues for induction of melanogenesis, S91 cells were plated at 10^5 cells/35 mm dish in 10% calf serum. One day after plating, media was removed and replaced with media containing 2% calf serum and test compounds (Eller, et al., 1996). Cells were cultured for 6 days at 37° C. in 5% CO2 in a humidified incubator. Following this treatment period, cells were examined microscopically and the portion of dedifferentiated and differentiated cells was estimated. Previous studies have shown that dedifferentiated S91 cells have a rounded, spindly appearance while differentiated S91 cells have a flattened, cuboidal, multipolar and dendritic appearance (Orlow, et al., Exp. Cell Res. 191:209-218, 1990).
Following this microscopic examination, cells were detached from dishes by trypsin. The time required for detachment by trypsin was recorded as an additional indicator of the phenotypic effects of test compounds. For each treatment, a subsample of cells was counted to determine the effects of treatment compounds on cellular proliferation. The remainder of cells were used for determination of melanin content. Melanin was extracted from cells by vortexing for 15 min in 1N NaOH. Standards were prepared by dissolving melanin (Sigma) in 1 N NaOH (Eller, et al., 1996). Absorbance of standards and samples was measured at 475 nm. Melanin was expressed as pg melanin/cell.

[5] = test system: Normal human epidermal melanocytes (NHEMs); assay: Melanin induction in normal human epidermal melanocytes; type: cell-based
Procedure: Normal human epidermal melanocytes (NHEMs) were examined for induction of melanogenesis using cells and media from Clonetics Corporation (San Diego, Calif.). Cells were cultured exactly as specified by the supplier.

[6] = test system: American short-haired guinea pigs; assay: Topical melanogenesis (pigmentation rating) in guinea pigs; type: in vivo, guinea pig; design: Pigmentation Rating / Pigmentation Rating Background Corrected: scale not given here
Procedure: Compounds were tested for melanogenic activity in vivo by application to American short-haired guinea pigs. Treatment sites were created by removal of fur using Nair® brand depilatory. In the Table, the numbers presented are the relative melanogenesis rating (mean ±SE), and are arranged according to the relative location on the animal, with the head being to the left and the tail being to the right. Propylene glycol (PG=13.6M), 2,3-butanediol (2,3-BD=10.95M), and 1,2-cis-cyclopentanediol (1,2-cs-CPD=10.7M) were applied as full strength solutions. 3,3-dimethyl-1,2-butanediol (3,3-M-1,2-BD) was applied as a 4M solution dissolved in ethanol. Two weeks following cessation of treatments, the degree of pigmentation was subjectively rated according to the following scale:
In order to minimize the effects of dimunition of response from head to tails of animals, all future experiments were done using only treatment spots located towards the tails of animals (c and d in Table 7). Deemed as additionally beneficial, in this area of the animal differences of responsiveness to strong and weak inducers of pigmentation, as deduced from cell culture, were greatest. […] Pigmentation ratings were corrected for background (control treatment spots), normalized to 1M to account for the different amounts of each agent applied, and then normalized to results for 1,2-PG (Table 8). […] It is anticipated that further improvements in formulation will additionally improve responsiveness to 5-NBene-2,2-DM and other compounds in this invention.
In FIG. 5, a, b, c and d indicate treatment spots that transverse the anterior-posterior axis along the backs of guinea pigs.

[7] = 5 day treatment, concentrations as E130
[8] = pair of replicates, concentrations as E130
[9] = No Penetration Enhancer, concentrations as E85

For `CC(C)(C)C(O)CO` (stereo not drawn) [3,3-M-1,2-BD, 3,3-dimethyl-1,2-butanediol], the “Concentration Required for ≧2-fold Melanin Induction in S91 Cells” value [1] was 10 mM, the “Tyrosinase In Situ” value ([2]; 5 day treatment, 300 mM 1,2-PG, 25 mM 3,3-M-1,2-BD, 5 mM 5-NBene-2,2-DM, 0.1 mM IBMX) was 20.5 dpm/hr/10^3 Cells and 21.0 dpm/hr/10^3 Cells and the “Tyrosinase 200 g Partic” value [2, 7] was 1646 dpm/hr/10^3 Cells and 2226 dpm/hr/10^3 Cells. For the same compound, the “Tyrosinase Cellular” value [2, 7] was 11728 dpm/hr/10^3 Cells and 11730 dpm/hr/10^3 Cells, the “Tyrosinase 17300 g Partic” value ([2]; Post 200 X g, 5 day treatment, concentrations as E130) was 536 dpm/hr/10^3 Cells and 425 dpm/hr/10^3 Cells and the “Tyrosinase Media” value ([2]; Post 17300 X g, 5 day treatment, concentrations as E130) was 5495 dpm/hr/10^3 Cells and 3056 dpm/hr/10^3 Cells. For the same compound, the “Tyrosinase 200 g Partic, relative to controls (in parentheses)” value [2, 8] was “(5.64X)”, the “Tyrosinase 17300 g Partic, relative to controls (in parentheses)” value [2, 8] was “(4.20X)” and the “Tyrosinase Cellular, relative to controls (in parentheses)” value [2, 8] was “(1.15X)”. For the same compound, the “Tyrosinase In Situ, relative to controls (in parentheses)” value [2, 8] was “(1.31X)”, the “Tyrosinase Media, relative to controls (in parentheses)” value [2, 8] was “(2.75X)” and the “Tyrosinase dpm/hr 10^3 Cells” value [3] was 1211 ± 38 dpm/hr/10^3 Cells. The “Tyrosinase dpm/hr ug Protein” value [3] was 1746 ± 220 dpm/hr/ug Protein, the “toxicity to S91 cells” value [4] was “nontoxic” and the “Concentration Required for ≧1.5-fold Melanin Induction in NHEMs” value [5] was 12.5 mM. The “Pigmentation Rating Normalized to 1,2-PG” value [6, 9] was 18.1 ± 6.8, the “Pigmentation Rating Normalized to 1M” value [6, 9] was 0.272 ± 0.102 and the “Pigmentation Rating Background Corrected” value ([6]; No Penetration Enhancer, corrected for Nair control, concentrations as E85) was 1.09 ± 0.41. For the same compound, the “Pigmentation Rating” value ([6]; No Penetration Enhancer, sites c and d, 13.61M 1,2-PG, 11.0M 2,3-M-2,3-BD, 11.3M 2-M-1,3-PG, 8.7M 1,2-cs-CPD, 4.0M 3,3-M-1,2-BD) was 1.17 ± 0.44, the “greater melanogenesis than PG applied at similar body locations” value ([6]; guinea pig, 5 days) was 4.5 fold and the “relative melanogenesis rating (mean ±SE), scale 0-4” value ([6]; site c, 25 μl twice per day for 5 days, rated two weeks after, full strength, 3,3-M-1,2-BD 4M in ethanol) was 1.16 ± 0.66^2.
